Data on 19 molecules can be found in patent US20260345555A1, “Compositions and Methods for Protecting Salivary Glands from Off-Target Radiation Damage” (University of Rochester, priority 2022, published 2026).

The conditions of series [1]: in vivo; cited from earlier work.
For series [2] the following is noted: literature; cited from earlier work.
Series [3] has as its system senescence-associated β-galactosidase in salivary gland cell clusters (SGm). Nature of the series: Cellular senescence assay (SPiDER-βGal) in salivary gland tissue chip, 5 days post-radiation (15 Gy); also second screen of library hits at 100 μM. On Senescence (radioprotection): key: +: radioprotection; ~: partial radioprotection; —: no radioprotection. Format: cell-based, mouse. To be noted: for Senescence normalized mean intensity: second screen of library hits at 100 μM, 5 days post-radiation, only drugs nonsignificant compared to 0 Gy in the glutathione assay. An excerpt:
The chip platform consists of an array of near-spherical microbubble (MB) cavities formed in poly(dimethylsiloxane) (PDMS). Each chip, containing ~50 MBs, affixed within wells of a 96-well plate (FIG. 1C). Primary salivary gland cell clusters (FIG. 1A), suspended in a poly(ethylene glycol) (PEG) hydrogel precursor and MMP-degradable peptide crosslinker solution together with the photoinitiator LAP, were applied to the chip allowing the clusters to deposit into the MBs (FIG. 1D). In situ polymerization of the hydrogel was achieved using long-wave, low intensity UV light. Over time, the cell clusters aggregate and proliferate to form SGm (FIG. 1C).
For senescence, a protocol similar to the glutathione assay was followed to determine the optimal time point post-radiation for detecting a change in senescence between 0 Gy and 15 Gy, as measured by senescence-associated β-galactosidase activity.
The glutathione and senescence assays were used to screen a library of FDA-approved drugs (Selleck Chemicals) at 100 μM. Drugs were first screened using the glutathione assay according to the timeline depicted in FIG. 2A. […] Hits with the glutathione assay were then tested with the senescence assay and considered a “double hit” if senescence levels were statistically similar to levels at 0 Gy (FIG. 4, black circles).
Mice were euthanized and the submandibular glands (SMG) were removed and chopped with a razor blade for 5 min. […] Cells were centrifuged, then resuspended in HBSS with 15 mM HEPES and passed through 100 μm and 20 μm mesh filters to isolate clusters between 20-100 μm. […] The isolated clusters were combined with hydrogel precursor solution and seeded in MB array-based chips as described below.
The cell/gel precursor solution (25 μL for 48 well; 20 μL for 96 well) was pipetted onto the MB chips and incubated for 30 min, pipetting every 10 min to redisperse cells that had settled onto the surface of the chip.
A cellular senescence assay for the chips was developed by adapting the Cellular Senescence Detection Kit—SPiDER-βGal (Dojindo Molecular Technologies, Inc. SG04). Bafilomycin A1 and SPiDER-βGal stock solutions were prepared in DMSO per manufacturer directions. The assay was performed by first incubating the chips with bafilomycin A1 (1:1000 dilution in media) for 1 hr at 37 °C. […] Chips were washed twice with media and imaged using a fluorescence microscope with a Texas Red filter (Excitation: 580 nm; Emission: 604 nm).
For radioprotection experiments, SGm were cultured in MB-hydrogel chips for 4 days, then drugs were added to the chips 30 min prior to irradiation and washed out with media 30 min post-radiation treatment. […] The glutathione and senescence assays were performed at 4- and 5-days post-radiation. For assay validation experiments, at least 3 chips (N=3) were used for each drug, corresponding to >100 MBs (n>100); these values are listed in the figure description for each experiment. Mean, standard deviation, and statistics were calculated based on the number of MBs (n).
For screening of the Selleck Chemicals compound library, the same treatment scheme was used, with drugs administered at 100 μM. One MB chip (N=1) was used per compound, with ~40-50 MBs per chip […]; statistics were calculated using the number of MBs (n) and compared to 0 Gy controls.
For both the glutathione and cellular senescence assays, images were quantified in ImageJ.

Series [4] concerns Reduced glutathione in salivary gland cell clusters (SGm). The series is described as follows: Glutathione assay in salivary gland tissue chip, 4 days post-radiation (15 Gy); also first screen of Selleck library at 100 μM. On Glutathione (radioprotection): key: +: radioprotection; ~: partial radioprotection; —: no radioprotection. As to conditions: for Glutathione normalized mean intensity: first screen of Selleck library at 100 μM; for protection against glutathione level changes resulting from radiation: 50 μM; for hit in the drug screen: glutathione assay first screen, 100 μM. Format: cell-based, mouse. The method in brief:
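Mouse submandibular gland cell clusters (20–100 μm) in PEG hydrogel on microbubble chips, cultured 4 days to form SGm, then dosed 30 min before and during 15 Gy irradiation and washed out 30 min after. Glutathione measured 4 days post-radiation; library compounds screened at 100 μM, hits matching 0 Gy levels.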

For series [5] the following is noted: reason for exclusion from further testing; cited from earlier work.
For series [6], the system named is p53-dependent and independent apoptosis. As to conditions: cited from earlier work.
For series [7], the system named is irradiated salivary glands. As to conditions: literature; cited from earlier work.
The test system of series [8] is COX-1. To be noted: role: inhibitor; cited from earlier work.
Series [9] concerns salivary flow rate. As to conditions: swine; cited from earlier work.
For series [10] the following is noted: in vivo; cited from earlier work. This is another data set of the same source.
Series [11] deals with lymphocyte cells. As to conditions: viability of lymphocytes as primary readout; cited from earlier work.
The mark [12] stands for this setting: Mus musculus, light or radiation study, 120 h, read-out: reduction in senescence.

Read-outs that look alike come from different tables or passages of the source.

Regarding `CCCSc1ccc2nc(NC(=O)OC)[nH]c2c1` [Albendazole (Albenza)], the “bioavailability” value in series [1] is listed as “poor bioavailability”.
Consider `CC1=NN(c2ccccc2)C(=O)C1` [Edaravone, 3-methyl-1-phenyl-2-pyrazoline-5-one], for which the radio-protective dose range in series [2] was 100 to 1000 µM. Moreover, the “Senescence (radioprotection)” value in series [3] (100 μM), in series [3] (1 mM) and in series [3] (4 mM) was “+” in each case. The “protection against radiation-induced senescence” value in series [3] (100 μM) is on record as “protective”. For the same molecule, in series [3] (Mus musculus, light or radiation study, 120 h, 100 μM, versus untreated, irradiated controls, read-out: reduction in senescence), the inhibition at 100 µM amounted to 96%. Further, in [3] (Mus musculus, light or radiation study, 120 h, 1 mM, versus untreated, irradiated controls, read-out: reduction in senescence), the inhibition at 1000 µM is 94%. Moreover, the inhibition at 4000 µM in [3] (Mus musculus, light or radiation study, 120 h, 4 mM, versus untreated, irradiated controls, read-out: reduction in senescence) was 113%. For the same molecule, the “radioprotection using the glutathione assay” value in series [4] (0.1 mM) is recorded as “partial radioprotection”. Moreover, the glutathione levels maintained in series [4] (0.1 mM, 15 Gy) was ~ 43%. Besides, in series [4] (1 mM), the “Glutathione (radioprotection)” value is “+”. For the same molecule, the “prevention of radiation-induced reduction of glutathione levels” value is listed as “showed protection” in series [4] (1 mM, 15 Gy, 4 days post-radiation) and “not at 4 mM” in series [4] (4 mM, 15 Gy, 4 days post-radiation).
For `COC(=O)[C@@H]1CC2=CC(=O)CC[C@]2(C)[C@@]23O[C@@H]2C[C@@]2(C)[C@@H](CC[C@@]24CCC(=O)O4)[C@H]13` [Eplerenone], the “solubility” value in [5] is recorded as “concerns with solubility”.
Turning to `CC(O)(P(=O)(O)O)P(=O)(O)O` [Etidronate (Didronel)], the “Senescence normalized mean intensity” value in [3] (15 Gy) is 0.992. Further, the “bioavailability” value in series [1] is “poor bioavailability”. The “Glutathione normalized mean intensity” value in series [4] (15 Gy, 4 days post-radiation) turned out to be 0.9486.
Regarding `O=C(O)c1ccc(/C=C/S(=O)(=O)Cc2ccc(Cl)cc2)cc1` [Ex-Rad], the “apoptosis” value in series [6] is “reduce p53-dependent and independent apoptosis”. For the same molecule, in series [3] (50 μM, 15 Gy), the “radioprotection (senescence)” value was 45%. The “protection against glutathione level changes resulting from radiation” value in [4] (15 Gy) is given as “no effect observed”.
For `COc1ccc(Cl)cc1C(=O)NCCc1ccc(S(=O)(=O)NC(=O)NC2CCCCC2)cc1` [Glyburide], the “radioprotection” value in [2] is “radioprotectors”.
On to `COc1ccc2c(c1)c(CC(=O)O)c(C)n2C(=O)c1ccc(Cl)cc1` [Indomethacin], for which the “mitigation of salivary gland damage” value in [7] was “mitigation of salivary gland damage”. The “COX-1 inhibition” value in [8] is “only blocks COX-1”. Besides, the results for the “radioprotection in drug screen” value in series [4] (100 μM library screen) and in series [4] (concentrations lower than 100 μM) were “showed radioprotection” and “ineffective”, respectively.
Take `O=C(Nc1cccc2c(=O)cc(-c3nnn[nH]3)oc12)c1ccc(OCCCCc2ccccc2)cc1` [Pranlukast]: the “Senescence normalized mean intensity” value in [3] (15 Gy) was 1.394. Besides, in series [4] (15 Gy, 4 days post-radiation), the “Glutathione normalized mean intensity” value is 0.9284.
For `CO[C@H]1C[C@@H]2CC[C@@H](C)[C@@](O)(O2)C(=O)C(=O)N2CCCC[C@H]2C(=O)O[C@H]([C@H](C)C[C@@H]2CC[C@@H](O)[C@H](OC)C2)CC(=O)[C@H](C)/C=C(\C)[C@@H](O)[C@@H](OC)C(=O)[C@H](C)C[C@H](C)/C=C/C=C/C=C/1C` [Rapamycin], the “salivary flow rate post-radiation” value in series [9] is “restore salivary flow rate post-radiation”. Besides, the “Senescence (radioprotection)” value in series [3] (50 μM) is “+”. In addition, the “protection against radiation-induced senescence” value in series [3] (50 μM, 15 Gy) is given as “complete protection”. Besides, the “protection against glutathione level changes resulting from radiation” value in series [4] (15 Gy) came to 58%.
As for `CC1(C)CC(O)CC(C)(C)N1[O]` [Tempol, 4-hydroxy-TEMPO], in series [3], the “Senescence (radioprotection)” value is recorded as “+”. In series [3] (setting [12]), the inhibition at 1000 µM stood at 75% and the inhibition at 4000 µM was 91%. In series [4], the “Glutathione (radioprotection)” value was “+” and the “prevention of radiation-induced reduction of glutathione levels” value is recorded as “strong radioprotection”.
Regarding `C[C@]12C=CC(=O)C=C1CC[C@H]1[C@@H]3C[C@@H](O)[C@](O)(C(=O)CO)[C@@]3(C)C[C@H](O)[C@@]12F` [Triamcinolone (Aristocort)], the “Senescence normalized mean intensity” value in [3] (15 Gy) was 0.9883. Besides, the “Glutathione normalized mean intensity” value in series [4] (15 Gy, 4 days post-radiation) is 1.061.
As for `NCCCNCCSP(=O)(O)O` [amifostine], the “adverse effects” value in series [10] is “severe side effects, including nausea, vomiting, and hypotension”.
As for `COc1c(N2CCNC(C)C2)c(F)cc2c(=O)c(C(=O)O)cn(C3CC3)c12` (stereo not shown) [gatifloxacin], the “radioprotection of lymphocytes” value in series [11] is given as “radioprotectors”. Further, in series [4], the “hit in the drug screen” value was “not hits”.
For `Cc1ccc(S(=O)(=O)NC(=O)NN2CC3CCCC3C2)cc1` (stereo not shown) [gliclazide], in series [2], the “antioxidant activity” value was “antioxidant activity” and the “radioprotection” value was “radioprotectors”.
Turning to `C[C@H]1COc2c(N3CCN(C)CC3)c(F)cc3c(=O)c(C(=O)O)cn1c23` [levofloxacin], the “radioprotection of lymphocytes” value in series [11] is given as “radioprotectors”. Moreover, in series [4], the “hit in the drug screen” value is “not hits”.
As for `COc1c(N2C[C@@H]3CCCN[C@@H]3C2)c(F)cc2c(=O)c(C(=O)O)cn(C3CC3)c12` [moxifloxacin], the “radioprotection of lymphocytes” value in [11] is “radioprotectors”.
In the case of `CCn1cc(C(=O)O)c(=O)c2cc(F)c(N3CCNCC3)cc21` [norfloxacin], in series [11], the “radioprotection of lymphocytes” value was “radioprotectors”. For the same molecule, in [4], the “hit in the drug screen” value is recorded as “not hits”.
Turning to `CC1COc2c(N3CCN(C)CC3)c(F)cc3c(=O)c(C(=O)O)cn1c23` (stereo not shown) [ofloxacin], the “radioprotection of lymphocytes” value in [11] was “radioprotectors”. In addition, the “hit in the drug screen” value in series [4] was “not hits”.
As for Meropenem, the “radioprotection in dose response, senescence assay” value in [3] (dose response, 15 Gy) is reported as “only partial protection”. In addition, the “double hit in the drug screen” value in series [3] (glutathione and senescence assays, 100 μM, statistically similar to 0 Gy) was “double hits”. The “concentration range of radioprotection, glutathione assay” value in series [4] (dose response, 15 Gy) was in the range of 0.1 to 100 µM. In addition, the “Estimated EC50, Glutathione” value in series [4] (nonlinear fit in Prism of dose response curves, 15 Gy) is 100 nM.
